For two compounds, IC50 results are on record in patent US7390833B2, “Method for treating ADAMTS-5-associated disease” (Wyeth, priority 2003, dated 2008).

One test concerns the target T1, ADAMTS-4 (Agg-1) (Homo sapiens, UniProt O75173).
T1 sequence (O75173 213-837): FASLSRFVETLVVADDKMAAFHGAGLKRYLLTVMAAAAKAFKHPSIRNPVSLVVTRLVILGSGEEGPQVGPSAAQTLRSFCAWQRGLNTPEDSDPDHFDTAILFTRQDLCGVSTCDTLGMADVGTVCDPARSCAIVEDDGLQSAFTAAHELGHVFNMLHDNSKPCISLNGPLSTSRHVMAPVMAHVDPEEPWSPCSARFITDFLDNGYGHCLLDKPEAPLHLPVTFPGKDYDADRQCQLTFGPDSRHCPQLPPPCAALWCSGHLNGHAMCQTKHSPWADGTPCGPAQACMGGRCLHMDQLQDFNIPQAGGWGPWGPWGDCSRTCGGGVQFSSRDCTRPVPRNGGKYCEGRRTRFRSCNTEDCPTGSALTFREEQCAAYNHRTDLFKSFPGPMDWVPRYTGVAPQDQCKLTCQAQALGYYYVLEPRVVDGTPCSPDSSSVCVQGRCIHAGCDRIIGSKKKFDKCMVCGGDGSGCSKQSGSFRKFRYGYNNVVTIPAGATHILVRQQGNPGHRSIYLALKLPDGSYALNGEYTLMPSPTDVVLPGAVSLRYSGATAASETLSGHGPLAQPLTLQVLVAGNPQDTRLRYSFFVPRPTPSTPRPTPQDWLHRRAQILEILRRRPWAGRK
In words: Inhibition of aggrecanase activity of ADAMTS-4 (Agg-1), continuous fluorescent quenched-peptide assay.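 Note: purified enzyme preincubated 10 min with inhibitor at room temperature, then initial substrate cleavage rate (RFU/min) read by fluorescence plate reader versus the uninhibited rate.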 In kind it is biochemical. As to conditions: concentration that inhibits 50% of the aggrecanase activity of ADAMTS-4 (Agg-1).

The target in test [1] is T2, ADAMTS-5 (Agg-2), purified recombinant human Aggrecanase-2 (Ag2t-Phe628-Strep) (Homo sapiens, UniProt Q9UNA0).
T2 construct: the form used is denoted as Ag2t-Phe628-Strep (MW=41,737)
T2 sequence (Q9UNA0 262-628): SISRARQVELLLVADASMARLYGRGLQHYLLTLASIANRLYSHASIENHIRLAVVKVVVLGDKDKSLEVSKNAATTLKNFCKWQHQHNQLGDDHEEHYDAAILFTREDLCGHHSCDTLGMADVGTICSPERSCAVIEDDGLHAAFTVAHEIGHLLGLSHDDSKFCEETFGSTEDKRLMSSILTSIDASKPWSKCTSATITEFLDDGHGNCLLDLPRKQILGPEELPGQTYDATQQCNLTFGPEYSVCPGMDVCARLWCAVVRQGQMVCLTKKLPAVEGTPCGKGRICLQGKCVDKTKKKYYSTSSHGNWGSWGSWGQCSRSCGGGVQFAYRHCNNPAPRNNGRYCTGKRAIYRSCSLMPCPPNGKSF
In words: Inhibition of aggrecanase activity of ADAMTS-5 (Agg-2), continuous fluorescent quenched-peptide assay (WAKB-5 substrate). In kind it is biochemical. As to conditions: concentration that inhibits 50% of the aggrecanase activity of ADAMTS-5 (Agg-2); substrate 25 μM, pH 7.4, room temperature. As for the experimental part: The biaryl sulfonamide compounds of the present invention were tested for their ability to inhibit the aggrecanase activity of ADAMTS-4 (Agg-1) and ADAMTS-5 (Agg-2).
A continuous assay was used in which the substrate upon which Agg-1 and […] acts is a synthetic peptide containing a fluorescent group that is quenched by energy transfer. Cleavage of the peptide by the aggrecanase enzyme results in a large increase in fluorescence. The initial rates of the reaction are compared to the initial rates of reactions containing the biaryl sulfonamide compounds in order to assess the inhibitor potency of the compounds.
The source of enzyme in the assay is purified recombinant human Aggrecanase-2. More specifically, the form used is denoted as Ag2t-Phe628-Strep (MW=41,737). This form is truncated relative to the full-length enzyme and contains an affinity tag. Aliquots of this enzyme were stored at −80° C. in 25 mM Tris (pH 8.0), 100 mM NaCl, 5 mM CaCl2, 10 μM ZnCl2, 10% glycerol.
The substrate in the assay is a synthetic peptide that is designed after a portion of brevican, one of the naturally occurring substrates of Aggrecanase-2. […] WAKB-5 (mass=1740) was custom synthesized by AnaSpec, Inc. (San Jose, Calif.) and was >95% pure based on HPLC analysis. […] Stock solutions of the substrate were prepared with MilliQ water and aliquots were stored at −80° C. The concentration of this substrate stock was spectrophotometrically determined using the extinction coefficient at 354 nm of 18,172 M^−1 cm^−1.
The assay buffer (pH 7.4) consisted of 50 mM Hepes, 100 mM NaCl, 5 mM CaCl2, 0.1% CHAPS, 5% glycerol. Each well of black polystyrene 96-well or 384-well plates contained a reaction consisting of assay buffer, purified Agg-2 (diluted with assay buffer), and varied concentrations of inhibitor (prepared by serial dilution in DMSO in 96-well polypropylene plates). The plates were then incubated at room temperature for 10 minutes. The enzymatic reactions were initiated by adding substrate to a final concentration of 25 μM and were mixed by pipetting up and down. The initial rates of the cleavage reactions were determined at room temperature with a fluorescence plate reader immediately after substrate addition.
Analysis of the results was conducted by generating a plot of time vs. RFU for each sample. This was used as the “progress curve” of the reaction. The slope for the portion of the progress curve that is most linear was then determined. This slope (RFU/min) was used as the initial rate of the reaction. Plots of the inhibitor concentration vs. the initial cleavage rate were then fit to the following equation: y=Vmax*(1−(x^n/(K^n+x^n))), whereby x=inhibitor concentration, y=initial rate, Vmax=initial rate in the absence of inhibitor, n=slope factor, and K=IC50 for the inhibition curve.

Description for ADAMTS-4 (Agg-1): A continuous assay was used in which the substrate upon which Agg-1 and Agg-1 acts is a synthetic peptide containing a fluorescent group that is quenched by energy transfer. […] The initial rates of the reaction are compared to the initial rates of reactions containing the biaryl sulfonamide compounds in order to assess the inhibitor potency of the compounds.
The assay buffer (pH 7.4) consisted of 50 mM Hepes, 100 mM NaCl, 5 mM CaCl2, 0.1% CHAPS, 5% glycerol. Each well of black polystyrene 96-well or 384-well plates contained a reaction consisting of assay buffer, purified Agg-2 (diluted with assay buffer), and varied concentrations of inhibitor (prepared by serial dilution in DMSO in 96-well polypropylene plates). The plates were then incubated at room temperature for 10 minutes. […] The initial rates of the cleavage reactions were determined at room temperature with a fluorescence plate reader immediately after substrate addition.

With `CC(C)[C@@H](NS(=O)(=O)c1ccc(-c2ccc(OCc3ccc4c(c3)OCCO4)cc2)cc1)C(=O)O`, the results for the IC50 (against ADAMTS-4 (Agg-1); in test [1]) were 1400 nM and 3 µM, respectively.

For the compound `Cc1cccc(Oc2ccc(OCc3ccc(-c4ccc(S(=O)(=O)N[C@@H](C(=O)O)C(C)C)c(Cl)c4)cc3)cc2)n1`, the IC50 against ADAMTS-4 (Agg-1) turned out to be 900 nM; in test [1] it was 3.2 µM.
